Experiment: xn = mol fraction of the nth substance listed

COCC(C)OCC(C)OC (stereo not given) + CCCCCCCO
Details	viscosity [mPa·s]
298.15 K, 101 kPa, x1 = 0.4532	1.895

ClCCCl + CCCCCCCO
303.15 K, 101 kPa
Details	viscosity [mPa·s]
x2 = 0.1082	0.852
x2 = 0.1749	0.918
x2 = 0.3034	1.082
x2 = 0.456	1.415
x2 = 0.5496	1.752
x2 = 0.622	2.078
x2 = 0.7978	3.174
x2 = 0.8642	3.699
x2 = 0.9346	4.286

CCNc1ccccc1 + CCCCCCO
viscosity [mPa·s], 101 kPa
Details	303.15 K	308.15 K	313.15 K
x1 = 0.0815	3.513	3.35	3.189
x1 = 0.1812	3.243	3.069	2.9
x1 = 0.2501	3.07	2.889	2.719
x1 = 0.3121	2.922	2.736	2.565
x1 = 0.3956	2.737	2.546	2.374
x1 = 0.4652	2.594	2.399	2.227
x1 = 0.5285	2.47	2.273	2.101
x1 = 0.6124	2.318	2.119	1.947
x1 = 0.6758	2.21	2.01	1.84
x1 = 0.7415	2.105	1.904	1.735
x1 = 0.8012	2.014	1.813	1.647
x1 = 0.8652	1.922	1.722	1.557
x1 = 0.9114	1.857	1.659	1.496

ClCCCl + CCCCCCO
303.15 K, 101 kPa
Details	viscosity [mPa·s]
x1 = 0.1515	2.572
x1 = 0.302	1.864
x1 = 0.5095	1.235
x1 = 0.6031	1.047
x1 = 0.7397	0.9
x1 = 0.9017	0.73

COCC(C)OCC(C)OC (stereo not given) + CCCCCO
Details	viscosity [mPa·s]
298.15 K, 101 kPa, x1 = 0.4941	1.345

ClCCCl + CCCCCO
303.15 K, 101 kPa
Details	viscosity [mPa·s]
x1 = 0.1509	2.002
x1 = 0.3002	1.472
x1 = 0.4539	1.111
x1 = 0.6003	0.906
x1 = 0.7472	0.777
x1 = 0.8986	0.706

ClCCl + CCCCCO
298.15 K, 101 kPa
Details	viscosity [mPa·s]
x2 = 0.0966	0.7741
x2 = 0.194	1.097
x2 = 0.2921	1.391
x2 = 0.3909	1.669
x2 = 0.4905	1.93
x2 = 0.5908	2.182
x2 = 0.6919	2.437
x2 = 0.7938	2.688
x2 = 0.8965	2.927

ClCCl + CCCCN
viscosity [mPa·s], 101 kPa
Details	x2 = 0.102	x2 = 0.1371	x2 = 0.2306	x2 = 0.3081	x2 = 0.435	x2 = 0.5159	x2 = 0.5926	x2 = 0.6971	x2 = 0.8192	x2 = 0.9041
293.15 K	0.441	0.443	0.448	0.452	0.46	0.466	0.471	0.477	0.486	0.493
298.15 K	0.418	0.421	0.425	0.427	0.434	0.439	0.443	0.446	0.454	0.457
303.15 K	0.401	0.403	0.406	0.409	0.414	0.417	0.42	0.424	0.429	0.433
308.15 K	0.385	0.386	0.39	0.392	0.395	0.397	0.4	0.402	0.405	0.408

CCC(C)Br (stereo not given) + CCCCO
viscosity [mPa·s], 101.3 kPa
Details	x1 = 0.1031	x1 = 0.2031	x1 = 0.3016	x1 = 0.4044	x1 = 0.5054	x1 = 0.5983	x1 = 0.7019	x1 = 0.8026	x1 = 0.9
298.15 K	2.035	1.634	1.325	1.097	0.9278	0.8012	0.7037	0.6308	0.5835
313.15 K	1.426	1.174	0.9794	0.8345	0.7206	0.6389	0.5736	0.523	0.4876

CCNc1ccccc1 + CCCCO
303.15 K, 101 kPa
Details	viscosity [mPa·s]
x1 = 0.0702	2.203
x1 = 0.1296	2.187
x1 = 0.1901	2.173
x1 = 0.2568	2.154
x1 = 0.3204	2.132
x1 = 0.3725	2.114
x1 = 0.4414	2.085
x1 = 0.5136	2.047
x1 = 0.5841	2.007
x1 = 0.6525	1.97
x1 = 0.7225	1.926
x1 = 0.7954	1.873
x1 = 0.8741	1.819

ClCCCl + CCCCO
viscosity [mPa·s], 101 kPa
Details	x2 = 0.0969	x2 = 0.2052	x2 = 0.3178	x2 = 0.4683	x2 = 0.5618	x2 = 0.6768	x2 = 0.856
303.15 K	0.7121	0.7449	0.8081	0.9418	1.062	1.272	1.744
313.15 K	0.6205	0.6427	0.692	0.7892	0.8734	1.036	1.378
323.15 K	0.5584	0.571	0.6061	0.6791	0.7447	0.8711	1.123

ClCCl + CCCCO
303.15 K, 101.3 kPa
Details	viscosity [mPa·s]
x2 = 0.036	0.4023
x2 = 0.0601	0.4082
x2 = 0.1127	0.4291
x2 = 0.1672	0.4596
x2 = 0.3142	0.5767
x2 = 0.4391	0.7209
x2 = 0.5585	0.9132
x2 = 0.6635	1.143
x2 = 0.7658	1.428
x2 = 0.8429	1.684
x2 = 0.9	1.89
x2 = 0.9566	2.105
